Format in all cases: functional
Common to all, as to conditions: read-out: DIZ

Assay [1] concerns Staphylococcus aureus. Description: Antibacterial activity against Staphylococcus aureus 209P assessed as zone of inhibition at 5 mg/ml by agar well diffusion method. Background: In agar diffusion tests the substance spreads into inoculated agar from a disc or well.
For assay [2], the system named is Escherichia coli. Description: Antibacterial activity against Escherichia coli ATCC 35421 assessed as zone of inhibition at 5 mg/ml by agar well diffusion method.
The subject of assay [3] is Candida albicans. Description: Antifungal activity against Candida albicans A01 assessed as zone of inhibition at 5 mg/ml by agar well diffusion method.
For assay [4], the system named is Staphylococcus aureus. The assay is described as follows: Antibacterial activity against Staphylococcus aureus 209P assessed as zone of inhibition at 1 mg/ml by agar well diffusion method.
Assay [5] relates to Escherichia coli. The assay is described as follows: Antibacterial activity against Escherichia coli ATCC 35421 assessed as zone of inhibition at 1 mg/ml by agar well diffusion method.
Assay [6] deals with Candida albicans. Description: Antifungal activity against Candida albicans A01 assessed as zone of inhibition at 1 mg/ml by agar well diffusion method.

`CCOc1ccc2sc(S(C)(=O)=O)nc2c1S(=O)(=O)N1CCO[C@H](COc2ccccc2)C1`: the zone of inhibition at 5000 µg/mL in assay [1] is 9 mm; in assay [2] it was at most 7 mm; in assay [3], at most 7 mm. Also, the zone of inhibition at 1000 µg/mL in assay [4], in assay [5] and in assay [6] was at most 7 mm each time.
As to `CCOc1ccc2sc(S(C)(=O)=O)nc2c1S(=O)(=O)Cl`, the zone of inhibition at 5000 µg/mL in assay [1], in assay [2] and in assay [3] was at most 7 mm in each case. Also, the zone of inhibition at 1000 µg/mL in assay [4], in assay [5] and in assay [6] was at most 7 mm each time.
Consider `CCOc1ccc2sc(S(C)(=O)=O)nc2c1NC(=O)CN1CCOCC1`, for which the zone of inhibition at 5000 µg/mL in assay [1], in assay [2] and in assay [3] was at most 7 mm throughout. Further, the zone of inhibition at 1000 µg/mL in assay [4] is 9 mm; in assay [5], at most 7 mm; in assay [6], at most 7 mm.
In the case of `CCOc1ccc2sc(S(C)(=O)=O)nc2c1NC(=O)CCl`, the zone of inhibition at 5000 µg/mL in assay [1], in assay [2] and in assay [3] was at most 7 mm in each case. Further, the zone of inhibition at 1000 µg/mL in assay [4], in assay [5] and in assay [6] was at most 7 mm each time.
In the case of `CCOc1ccc2sc(S(C)(=O)=O)nc2c1S(=O)(=O)NC1CC1`, the zone of inhibition at 5000 µg/mL in assay [1], in assay [2] and in assay [3] was at most 7 mm in each case. Also, the zone of inhibition at 1000 µg/mL in assay [4], in assay [5] and in assay [6] was at most 7 mm in each case.
For the compound `CCOc1ccc2sc(S(C)(=O)=O)nc2c1[N+](=O)[O-]`, the zone of inhibition at 5000 µg/mL is 8 mm in assay [1], at most 7 mm in assay [2] and at most 7 mm in assay [3]. Besides, the zone of inhibition at 1000 µg/mL in assay [4], in assay [5] and in assay [6] was at most 7 mm throughout.
In the case of `CCOc1ccc2sc(S(C)(=O)=O)nc2c1NC(=O)CNCN1CCN(C(=O)OC(C)(C)C)CC1`, the zone of inhibition at 5000 µg/mL in assay [1] was 8 mm; in assay [2], at most 7 mm; in assay [3], at most 7 mm. In addition, the zone of inhibition at 1000 µg/mL in assay [4], in assay [5] and in assay [6] was at most 7 mm each time.
On to `CCOc1ccc2sc(S(C)(=O)=O)nc2c1S(=O)(=O)NCc1ccccc1`, for which the values for the zone of inhibition at 5000 µg/mL in assay [1], in assay [2] and in assay [3] were at most 7 mm, at most 7 mm and 9 mm, respectively. For the same compound, the zone of inhibition at 1000 µg/mL in assay [4], in assay [5] and in assay [6] was at most 7 mm each time.
For `CS(=O)(=O)c1nc2cc(OCc3ccccc3)ccc2s1`, the zone of inhibition at 5000 µg/mL in assay [1], in assay [2] and in assay [3] was at most 7 mm in each case. For the same compound, the zone of inhibition at 1000 µg/mL in assay [4] is 8 mm; in assay [5], at most 7 mm; in assay [6] it was at most 7 mm.
In the case of `CCOc1ccc2sc(S(C)(=O)=O)nc2c1NC(=O)CNC(C)C`, the zone of inhibition at 5000 µg/mL in assay [1], in assay [2] and in assay [3] was at most 7 mm in each case. Moreover, the zone of inhibition at 1000 µg/mL in assay [4], in assay [5] and in assay [6] was at most 7 mm each time.
For `CCOc1ccc2sc(S(C)(=O)=O)nc2c1S(=O)(=O)NC(C)C`, the zone of inhibition at 5000 µg/mL in assay [1], in assay [2] and in assay [3] was at most 7 mm throughout. Besides, the zone of inhibition at 1000 µg/mL in assay [4], in assay [5] and in assay [6] was at most 7 mm each time.
For `CCOc1ccc2sc(S(C)(=O)=O)nc2c1S(=O)(=O)NC`, the zone of inhibition at 5000 µg/mL in assay [1], in assay [2] and in assay [3] was at most 7 mm each time. Besides, the zone of inhibition at 1000 µg/mL in assay [4], in assay [5] and in assay [6] was at most 7 mm each time.
`CS(=O)(=O)c1nc2cc(O)ccc2s1`: the zone of inhibition at 5000 µg/mL in assay [1], in assay [2] and in assay [3] was at most 7 mm each time. In addition, the zone of inhibition at 1000 µg/mL in assay [4], in assay [5] and in assay [6] was at most 7 mm in each case.
As for `CCOc1ccc2sc(S(C)(=O)=O)nc2c1S(=O)(=O)Nc1ccc(Cl)c(Cl)c1`, the zone of inhibition at 5000 µg/mL in assay [1], in assay [2] and in assay [3] was at most 7 mm in each case. The zone of inhibition at 1000 µg/mL in assay [4], in assay [5] and in assay [6] was at most 7 mm in each case.
Consider `CCCNS(=O)(=O)c1c(OCC)ccc2sc(S(C)(=O)=O)nc12`, for which the zone of inhibition at 5000 µg/mL in assay [1], in assay [2] and in assay [3] was at most 7 mm throughout. The zone of inhibition at 1000 µg/mL in assay [4], in assay [5] and in assay [6] was at most 7 mm throughout.
Take `CCOc1ccc2sc(S(C)(=O)=O)nc2c1NC(=O)CNCN1CCCC1`: the zone of inhibition at 5000 µg/mL in assay [1], in assay [2] and in assay [3] was at most 7 mm each time. For the same compound, the zone of inhibition at 1000 µg/mL in assay [4], in assay [5] and in assay [6] was at most 7 mm each time.
`CS(=O)(=O)c1nc2cc(OCc3ccc(OCc4ccccc4)cc3)ccc2s1`: the zone of inhibition at 5000 µg/mL in assay [1], in assay [2] and in assay [3] was at most 7 mm each time. The zone of inhibition at 1000 µg/mL in assay [4], in assay [5] and in assay [6] was at most 7 mm throughout.
As for `CCOc1ccc2sc(S(C)(=O)=O)nc2c1`, the zone of inhibition at 5000 µg/mL in assay [1] is 8 mm; in assay [2] it was at most 7 mm; in assay [3], at most 7 mm. Also, the zone of inhibition at 1000 µg/mL in assay [4], in assay [5] and in assay [6] was at most 7 mm in each case.
On to `CCNS(=O)(=O)c1c(OCC)ccc2sc(S(C)(=O)=O)nc12`, for which the zone of inhibition at 5000 µg/mL in assay [1], in assay [2] and in assay [3] was at most 7 mm throughout. Further, the zone of inhibition at 1000 µg/mL in assay [4], in assay [5] and in assay [6] was at most 7 mm in each case.
As for `CCOc1ccc2sc(S(C)(=O)=O)nc2c1S(=O)(=O)O`, the figures for the zone of inhibition at 5000 µg/mL in assay [1], in assay [2] and in assay [3] were at most 7 mm, at most 7 mm and 9 mm, respectively. Besides, the zone of inhibition at 1000 µg/mL in assay [4], in assay [5] and in assay [6] was at most 7 mm in each case.

(Values after ChEMBL document CHEMBL3994655, “Methylsulfonyl benzothiazoles (MSBT) derivatives: Search for new potential antimicrobial and anticancer agents” (2017).)
